Values quoted from earlier work, collected in patent publication US20030129188A1, “Integrin targeting compounds” (The Scripps Research Institute, priority 2001, published 2003).

Conditions: more potent than doxorubicin itself

SMILES: COc1cccc2c1C(=O)c1c(O)c3c(c(O)c1C2=O)C[C@@](O)(C(=O)CO)C[C@@H]3O[C@H]1C[C@H](N2C=CCC2)[C@H](O)[C@H](C)O1 [2-pyrrolinodoxorubicin]
- potency relative to doxorubicin: 500-1000 times
